Where two headings read alike, the source gives them in different places.
How the values were obtained:
[1] = tested on: HAP1 MTAP-intact cell line; test: SDMA in-cell western assay, HAP1 MTAP-intact; type: cell-based; conditions: HAP1 MTAP-intact, read-out: MTAP HAP1 intact IC50
Procedure, shortened: (§1)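 Isogenic HAP1 pair: the MTAP-intact line expresses endogenous MTAP, and the deleted line is MTAP-null. Symmetric dimethylarginine was detected by in-cell western and IC50 values derived for each line.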

PRMT5 [2] = molecular target: T1, PRMT5 (Homo sapiens, UniProt O14744); test: PRMT5 biochemical IC50 assay with no cofactor; conditions: PRMT5, no cofactor
T1 construct: purchased Viva (custom protein)
T1 sequence (O14744 whole entry): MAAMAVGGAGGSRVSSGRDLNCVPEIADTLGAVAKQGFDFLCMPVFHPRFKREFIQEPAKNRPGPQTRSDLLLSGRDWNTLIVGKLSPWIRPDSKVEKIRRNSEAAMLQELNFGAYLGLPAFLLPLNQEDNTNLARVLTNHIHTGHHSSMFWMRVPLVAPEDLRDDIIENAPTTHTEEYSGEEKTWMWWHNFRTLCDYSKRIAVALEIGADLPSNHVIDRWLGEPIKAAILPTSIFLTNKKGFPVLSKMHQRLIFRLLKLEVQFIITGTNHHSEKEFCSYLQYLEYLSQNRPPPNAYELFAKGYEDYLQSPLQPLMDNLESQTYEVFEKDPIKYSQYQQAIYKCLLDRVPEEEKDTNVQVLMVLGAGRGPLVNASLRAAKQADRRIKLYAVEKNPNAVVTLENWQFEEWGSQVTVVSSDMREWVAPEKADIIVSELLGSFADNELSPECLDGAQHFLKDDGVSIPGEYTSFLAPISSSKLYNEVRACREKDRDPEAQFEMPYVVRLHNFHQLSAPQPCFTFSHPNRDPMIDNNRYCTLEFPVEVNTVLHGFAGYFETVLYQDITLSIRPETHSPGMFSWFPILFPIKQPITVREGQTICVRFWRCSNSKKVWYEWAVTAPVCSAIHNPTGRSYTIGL
T1 sequence (Q9BQA1 whole entry partner): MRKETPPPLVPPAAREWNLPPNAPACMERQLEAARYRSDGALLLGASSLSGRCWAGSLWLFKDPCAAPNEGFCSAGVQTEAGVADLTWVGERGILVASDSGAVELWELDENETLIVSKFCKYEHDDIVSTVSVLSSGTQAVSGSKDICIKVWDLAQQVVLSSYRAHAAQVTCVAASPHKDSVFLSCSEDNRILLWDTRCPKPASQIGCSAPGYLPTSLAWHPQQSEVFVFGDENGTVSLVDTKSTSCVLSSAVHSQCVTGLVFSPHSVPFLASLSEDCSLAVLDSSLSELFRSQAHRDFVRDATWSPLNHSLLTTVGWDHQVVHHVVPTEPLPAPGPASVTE
Text: Table 1 indicates IC50 values (μM) against PRMT5 for exemplary compounds in the presence of SAM as cofactor, with no cofactor, and with MTA as cofactor, respectively (columns 4-6). […] Ki values can be calculated from the IC50 values as described in the Examples section. As detailed in the Examples section, for the assay performed in the presence of SAM, IC50=Ki×1.5 (Ki=IC50/1.5).

[3] = tested on: HAP1 MTAP-deleted cell line; test: SDMA in-cell western assay, HAP1 MTAP-deleted; type: cell-based; conditions: for IC50: HAP1 MTAP-deleted
Procedure, shortened: as §1

PRMT5 [4] = molecular target: T1, PRMT5; test: PRMT5 biochemical IC50 assay with MTA as cofactor; conditions: PRMT5, MTA as cofactor; read-out: MTA IC50
[5] = tested on: HAP1 MTAP-deleted cell line; test: Viability assay, MTAP-deleted cell line; type: cell-based; conditions: read-out: HAP1 MTAP deleted viability
Text: Table 1 additionally indicates IC50 values in a viability assay for the MTAP-deleted cell line (column 10), indicating the effect of treatment with compound on cell survival.

PRMT5 [6] = molecular target: T1, PRMT5; test: PRMT5 biochemical IC50 assay with SAM as cofactor; conditions: PRMT5, SAM as cofactor; read-out: SAM IC50
[7] = Homo sapiens, HAP1, SDMA in-cell western
[8] = Homo sapiens, HAP1, SDMA in-cell western, read-out: HAP1 MTAP deleted IC50
[9] = IC50 ratio HAP1 MTAP-intact / HAP1 MTAP-deleted, SDMA in-cell western
[10] = Homo sapiens, HAP1, viability assay, MTAP-deleted cell line
[11] = Homo sapiens, HAP1, SDMA in-cell western, read-out: HAP 1 MTAP deleted IC50
[12] = IC50 ratio HAP1 MTAP-intact vs HAP1 MTAP-deleted, SDMA in-cell western
[13] = read-out: No Cofactor/ rel IC50
[14] = Homo sapiens, HAP1, viability assay, HAP1 MTAP-deleted
[15] = Homo sapiens, HAP1, viability IC50, MTAP-deleted cell line

Compound	IC50 [1, 7] [nM]	IC50 (PRMT5 [2]; read-out: No Cofactor/rel IC50) [nM]	IC50 [3, 8] [nM]	MTAP intact/deleted ratio [3, 9]	IC50 (PRMT5 [4]) [nM]	IC50 [5, 10] [nM]	IC50 (PRMT5 [6]) [nM]	IC50 [3, 11] [nM]	MTAP intact/deleted ratio [3, 12]	IC50 ([1]; SDMA in-cell western) [nM]	IC50 (PRMT5 [2]; [13]) [nM]	IC50 ([3]; SDMA in-cell western, read-out: HAP 1 MTAP deleted IC50) [nM]	IC50 ([5]; viability, HAP1 MTAP-deleted cell line) [nM]	IC50 [5, 14] [nM]	IC50 [5, 15] [nM]
C[C@@H]1CC[C@@H](c2ccc3c(c2)CCC3)N(C(=O)C(=O)Nc2cncc(C(N)=O)c2)C1 (racemic) [Compound 277, rac-5-{2-[(2R,5S)-2-(2,3-Dihydro-1H-inden-5-yl)-5-methylpiperidin-1-yl]-2-oxoacetamido}pyridine-3-carboxamide]	> 1000	50 to 500	100 to 1000	A (an IC50 ratio greater than or equal to 10 fold)	< 50	1000 to 10000	50 to 500								
Cc1cc(NC(=O)C(=O)N2C[C@H](C)CC[C@H]2c2ccsc2)cnc1N (racemic) [Compound 977, rac-N-(6-Amino-5-methyl-3-pyridyl)-2-[(2R,5S)-5-methyl-2-(3-thienyl)-1-piperidyl]-2-oxo-acetamide]	100 to 1000	50 to 500		B (an IC50 ratio greater than or equal to 3 fold but lower than 10 fold)	50 to 500	1000 to 10000	50 to 500	< 100							
CCc1cc(NC(=O)C(=O)N2C[C@@H](C)CC[C@@H]2c2ccc(N3CCN(C(C)C)CC3)c(C)c2)cnc1N (racemic) [Compound 1163, N-(6-Amino-5-ethyl-3-pyridyl)-2-oxo-2-[rac-(2R,5S)-2-[4-(4-isopropylpiperazin-1-yl)-3-methyl-phenyl]-5-methyl-1-piperidyl]acetamide]	100 to 1000	< 50	< 100		< 50	< 1000	< 50		A (an IC50 ratio greater than or equal to 10 fold)						
CCc1cc(NC(=O)C(=O)N2C[C@@H](C)CC[C@@H]2c2cccc([C@H]3CCCN(C)C3)c2)cnc1N (single isomer, unassigned) [Compound 1353]				A (an IC50 ratio greater than or equal to 10 fold)	< 50		50 to 500			100 to 1000	< 50	< 100	< 1000		
COc1ncc(NC(=O)C(=O)N2C[C@@H](C)C(F)(F)C[C@@H]2c2ccc(C)nc2)cc1C(N)=O (single isomer, unassigned) [Compound 908]	> 1000	50 to 500		A (an IC50 ratio greater than or equal to 10 fold)	< 50	1000 to 10000	50 to 500	< 100							
Cc1ncc(NC(=O)C(=O)N2C[C@@H](C)CC[C@@H]2c2ccc3c(c2)CCC(=O)N3)cc1Cl (single isomer, unassigned) [Compound 727]	> 1000	> 500	> 1000	C (an IC50 ratio of less than 3 fold)	> 500		> 500							> 10000	
CC(=O)N[C@H]1CCN(C(=O)C(=O)Nc2cnc(N)c(C)c2)[C@@H](c2ccccc2)C1 (racemic) [Compound 831, 2-[(2R,4S)-4-acetamido-2-phenyl-1-piperidyl]-N-(6-amino-5-methyl-3-pyridyl)-2-oxo-acetamide]	> 1000	> 500	> 1000	B (an IC50 ratio greater than or equal to 3 fold but lower than 10 fold)	50 to 500		> 500							> 10000	
CC(=O)N1CCCC([C@@H]2CC[C@@H](C)CN2C(=O)C(=O)Nc2cnc(N)c(C)c2)C1 (mixture of isomers) [Compound 757, rac-2-[(2R,5S)-2-(1-acetyl-3-piperidyl)-5-methyl-1-piperidyl]-N-(6-amino-5-methyl-3-pyridyl)-2-oxo-acetamide]	> 1000	50 to 500	100 to 1000	B (an IC50 ratio greater than or equal to 3 fold but lower than 10 fold)	50 to 500		50 to 500							> 10000	
C[C@H]1CC[C@H]([C@@H]2CCC[C@@H](O)C2)N(C(=O)C(=O)Nc2cncc(C(N)=O)c2)C1 (single isomer, unassigned) [Compound 520]	> 1000	50 to 500	100 to 1000	A (an IC50 ratio greater than or equal to 10 fold)	50 to 500	> 10000	50 to 500								
COc1ncc(NC(=O)C(=O)N2C[C@@H](C)CC[C@@H]2c2cncs2)cc1C(N)=O (single isomer, unassigned) [Compound 516]	> 1000	< 50	< 100	A (an IC50 ratio greater than or equal to 10 fold)	< 50	< 1000	< 50								
C[C@@H]1CN(C(=O)C(=O)Nc2cncc(C(N)=O)c2)C[C@H]2CCCC[C@H]21 (racemic) [Compound 542, 5-[[2-[(4S,4aS,8aS)-4-Methyl-3,4,4a,5,6,7,8,8a-octahydro-1H-isoquinolin-2-yl]-2-oxo-acetyl]amino]pyridine-3-carboxamide]	> 1000	> 500		B (an IC50 ratio greater than or equal to 3 fold but lower than 10 fold)	50 to 500		50 to 500	> 1000							> 10000
COc1ncc(NC(=O)C(=O)N2C[C@@H](C)CC[C@@H]2c2cc3[nH]ncc3s2)cc1C(N)=O (single isomer, unassigned) [Compound 1006, 2-methoxy-5-(2-(5-methyl-2-(1H-thieno[3,2-c]pyrazol-5-yl)piperidin-1-yl)-2-oxoacetamido)nicotinamide]	> 1000	50 to 500		A (an IC50 ratio greater than or equal to 10 fold)	< 50	< 1000	50 to 500	< 100							
Cc1cc(NC(=O)C(=O)N2CC(C)CC(C)C2c2ccccc2)cnc1N (mixture of isomers) [Compound 314, N-(6-amino-5-methyl-3-pyridyl)-2-(3,5-dimethyl-2-phenyl-1-piperidyl)-2-oxo-acetamide]	> 1000	50 to 500	100 to 1000	A (an IC50 ratio greater than or equal to 10 fold)	50 to 500	1000 to 10000	> 500								
C[C@H]1CC[C@H](c2ccccc2)N(C(=O)C(=O)Nc2cncc(C(N)=O)c2)[C@H]1C (single isomer, unassigned) [Compound 433]	> 1000	> 500	< 100	A (an IC50 ratio greater than or equal to 10 fold)	< 50	> 10000	50 to 500								
COc1cc([C@@H]2CC[C@@H](C)CN2C(=O)C(=O)Nc2cncc(C(N)=O)c2)ccn1 (single isomer, unassigned) [Compound 532]	> 1000	< 50		A (an IC50 ratio greater than or equal to 10 fold)	< 50		50 to 500	< 100							< 1000
Cc1cc(NC(=O)C(=O)N2CCCCC2c2cccc3scnc23)cnc1N (centres unmarked) [Compound 129, N-(6-Amino-5-methyl-3-pyridyl)-2-[2-(1,3-benzothiazol-4-yl)-1-piperidyl]-2-oxo-acetamide]	> 1000			B (an IC50 ratio greater than or equal to 3 fold but lower than 10 fold)	50 to 500	> 10000	50 to 500	> 1000			> 500				
COc1ncc(NC(=O)C(=O)N2C[C@@H](C)CC[C@@H]2c2ccc3nn([C@@H]4CCN(C)C4)cc3c2)cc1C(N)=O (racemic) [Compound 1141, 2-Methoxy-5-[[2-oxo-2-[rac-(2R,5S)-5-methyl-2-[2-[rac-(3R)-1-methylpyrrolidin-3-yl]indazol-5-yl]-1-piperidyl]acetyl]amino]pyridine-3-carboxamide]	100 to 1000	< 50	< 100		< 50	< 1000	50 to 500		A (an IC50 ratio greater than or equal to 10 fold)						
